Test results: patent US20250057963A1, “DISCOVERY OF PIPERLONGUMINE AS A NOVEL E3 LIGASE LIGAND” (University of Florida Research Foundation, Incorporated, priority 2021, published 2025)
“Also recorded” adds a separate entry of the source.

Experiments:
[1] = test system: E3 ligases interacting with V5-TurboID-CDK9; assay: TurboID-bait assay (V5-TurboID-CDK9 in 293T cells) with LC-MS/MS or immunoblot; assay type: cell-based, Human; details: MS of biotinylated proteins with vs without 955
Text: (§1) Construction of the pcDNA3-V5-TurboID-CDK9 plasmid. To build the TurboID-bait assay, we first constructed a V5-TurboID-tagged CDK9 plasmid (pDL2518) through Gibson assembly method. The template plasmids HA-CDK9 (a gift from Andrew Rice, plasmid #28102) and V5-TurboID-NES_pCDNA3 (a gift from Alice Ting, plasmid #107169) were purchased from Addgene. The primer pair (5′-cagtctgcggtctgccgaaaagctgcag[…]-3′ and 5′-cagggtcaggcgctccaggggaggcag[…]-3′) and the template HA-CDK9 were used to clone the CDK9 fragment. The two primer pairs: pair-1 (5′-[…]ctgcctcccctggagcgcctgaccctg-3′ and 5′-[…]-3′); pair-2 (5′-[…]-3′ and 5′-[…]ctgcagcttttcggcagaccgcagactg-3′) and the template V5-TurboID-NES_pCDNA3 were used to clone the V5-TurbolD fragment. The PCR fragments were assembled using NEBuilder® HiFi DNAAssembly Master Mix (Cat. No. E2621, NEB, Ipswich, MA, USA). DNA sequences in all these plasmids were authenticated by automatic sequencing.
(§2) TurboID-bait assay. 293T (6×10^5 for WB detection and 1.2×10^6 for MS) cells were transfected with plasmid V5-TurboID-CDK9 using Lipofectamine 2000 as previously described (Lv et al., 2021). […] Then the cells were harvested and lysed in 1×PBS buffer (Cat. #D1408, Sigma-Aldrich). After centrifugation at 20,000×g for 60 min at 4° C., the supernatant soluble fraction was used for further analysis. […]

[2] = target: T1, E3 ligases interacting with V5-TurboID-CDK9 (Homo sapiens, UniProt Q14145); assay: as above; assay type: cell-based; details: with vs without 955, biotin present
T1 construct: The biotinylated proteins identified by MS in 293T cells; expressed in transfected cells; host or cells: 293T
T1 sequence (Q14145 whole entry): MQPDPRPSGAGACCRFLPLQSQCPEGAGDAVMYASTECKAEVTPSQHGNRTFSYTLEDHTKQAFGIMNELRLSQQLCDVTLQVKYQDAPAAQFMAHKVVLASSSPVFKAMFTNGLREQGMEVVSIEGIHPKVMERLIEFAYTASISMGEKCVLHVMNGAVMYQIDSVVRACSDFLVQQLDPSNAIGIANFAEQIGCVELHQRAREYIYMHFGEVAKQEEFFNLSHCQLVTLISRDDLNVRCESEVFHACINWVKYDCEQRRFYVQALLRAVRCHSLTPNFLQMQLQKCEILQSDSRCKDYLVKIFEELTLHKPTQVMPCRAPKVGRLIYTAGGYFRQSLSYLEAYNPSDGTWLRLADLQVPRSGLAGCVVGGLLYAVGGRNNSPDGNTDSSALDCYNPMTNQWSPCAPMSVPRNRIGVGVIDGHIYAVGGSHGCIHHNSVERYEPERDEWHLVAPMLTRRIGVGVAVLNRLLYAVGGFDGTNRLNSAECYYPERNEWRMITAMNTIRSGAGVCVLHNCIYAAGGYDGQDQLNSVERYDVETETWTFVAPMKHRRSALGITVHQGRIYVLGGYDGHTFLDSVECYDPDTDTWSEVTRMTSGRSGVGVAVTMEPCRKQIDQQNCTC
T1 sequence (P50750 whole entry partner): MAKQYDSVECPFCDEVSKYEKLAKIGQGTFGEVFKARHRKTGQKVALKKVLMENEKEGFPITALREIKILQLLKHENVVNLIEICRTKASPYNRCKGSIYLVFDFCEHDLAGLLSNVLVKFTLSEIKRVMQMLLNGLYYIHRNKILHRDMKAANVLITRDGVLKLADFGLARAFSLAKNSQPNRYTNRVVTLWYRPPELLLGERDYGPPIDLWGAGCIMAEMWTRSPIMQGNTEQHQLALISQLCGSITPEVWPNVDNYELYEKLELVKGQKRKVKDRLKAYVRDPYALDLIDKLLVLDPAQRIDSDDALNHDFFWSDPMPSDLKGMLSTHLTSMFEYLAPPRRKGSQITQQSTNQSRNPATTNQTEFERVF
Text: as §1, §2

[3] = target: T2, CDK9: 955: KEAP1 ternary complex (Homo sapiens, UniProt P50750+Q14145); assay: NanoBRET ternary complex formation assay in live 293T cells; assay type: cell-based; details: HiBit-CDK9 and Halo-KEAP1 in 293T cells, 6 h
T2 construct: expressed in transfected cells; host or cells: 293T
T2 sequence (P50750 whole entry): as the sequence (P50750 whole entry partner) above
T2 sequence (Q14145 whole entry): as the sequence (Q14145 whole entry) above
Text: CMV HiBit (Cat. No. CS1956B03) was purchased from Promega. Plasmid HaloTag-KEAP1 (a gift from Yimon Aye, plasmid #58240) was purchased from Addgene. HiBit-CDK9 were constructed through the Gibson assembly method. The primer pair (5′-[…]atggcaaagcagtacgactcggtggag-3′ and 5′-[…]gaagacgcgctcaaactccgtctggt-3′) and the template HA-CDK9 (a gift from Andrew Rice, plasmid #28102) was used to clone the CDK9 fragment. The primer pair (5′-accagacggagtttgagcgcgtcttc[…]-3′ and 5′-ctccaccgagtcgtactgcttcgccat[…]-3′) and pBit3.1—N(Cat. No. N2361, Promega) were used to clone the vector-containing fragment. The PCR fragments were assembled using NEBuilder® HiFi DNAAssembly Master Mix. DNA sequences in all these plasmids were authenticated by automatic sequencing. […] After treatment, NanoBRET Nano-Glo Substrate (Cat. No. N1662, Promega) was added into the medium, and the contents were mixed by shaking the plate for 30 s before measuring donor and acceptor signals on Biotek plate reader. Dual-filtered luminescence was collected with a 450/50 nm bandpass filter (donor, NanoBiT-CDK9 protein) and a 610-nm longpass filter (acceptor, HaloTag NanoBRET ligand) using an integration time of 0.5 s. mBRET ratios were calculated following the NanoBRET™ Nano-Glo® Detection System (Cat. No. N1662, Promega).

[4] = target: CDK9 (Homo sapiens, UniProt P50750); assay: CDK9 degradation in MOLT4 cells (immunoblot); assay type: cell-based; parameters: endogenous in cells; host or cells: MOLT4, 293T, K562, NCI-H1299, LNCaP
Sequence of CDK9 (P50750 whole entry): as the sequence (P50750 whole entry partner) above
Protocol: All the cell lines were maintained in a humidified incubator at 37° C. and 5% CO2.
Data analysis was performed using GraphPad Prism software (version 9) unless indicated otherwise. All graphs presented represent the mean±standard deviation of the mean (SD) unless otherwise stated.

COc1cc(/C=C/C(=O)N2CCC=CC2=O)cc(OC)c1OCCN1CCN(C(=O)CN2CCC(C(=O)Nc3ncc(SCc4ncc(C(C)(C)C)o4)s3)CC2)CC1 [compound 955, (E)-N-(5-(((5-(tert-butyl)oxazol-2-yl)methyl)thio)thiazol-2-yl)-1-(2-(4-(2-(2,6-dimethoxy-4-(3-oxo-3-(6-oxo-3,6-dihydropyridin-1(2H)-yl)prop-1-en-1-yl)phenoxy)ethyl)piperazin-1-yl)-2-oxoethyl)piperidine-4-carboxamide]
number of E3 ligases recruited to CDK9 [1]: 6 | KEAP1 pulled down (immunoblot validation) [2]: more KEAP1 could be pulled down; also recorded: significantly more KEAP1 can be pulled down | formation of the CDK9:KEAP1 ternary complex [3]: formed a stable ternary complex with CDK9 and KEAP1 in a dose-dependent manner | 955-induced CDK9 degradation after pre-treatment with PL or SNS-032 [4]: fully blocked | 955-induced CDK9 degradation after pre-treatment with autophagy/lysosome inhibitor Baf-A1 or chloroquine [4]: could not block CDK9 degradation; also recorded: does not block CDK9 degradation | 955-induced CDK9 degradation after pre-treatment with neddylation inhibitor MLN4924 [4]: could be blocked; also recorded: blocks 955-induced CDK9 degradation | 955-induced CDK9 degradation after pre-treatment with pan-caspase inhibitor QVD [4]: could not block CDK9 degradation; also recorded: does not block CDK9 degradation | 955-induced CDK9 degradation after pre-treatment with proteasome inhibitor MG132 or bortezomib [4]: could be blocked; also recorded: can be blocked | 955-induced CDK9 degradation with E1 inhibitors PYR-41 and TAK-243 [4]: E1-dependent | 955-induced CDK9 degradation with KEAP1 inhibitors CDDO-ME, CDDO-IM or DMF [4]: completely blocked | duration of CDK9 degradation effect in the time course ([4]; 955 at 0.1 μM): at least 48 hours | time at which CDK9 was completely degraded ([4]; 955 at 0.1 μM, time course): 8 h | time to almost complete degradation of CDK9 ([4]; 955 at 0.1 μM, time course): ≤ 8 h | CDK9 degradation with short-term treatment ([4]; 6 h treatment): potently degraded CDK9; also recorded: able to potently degrade CDK9 | DC50 ([4]; 16 h treatment, from ImageJ-quantified Western blots): 9 nM | CDK9 degradation ([4]; immunoblot): only 955, degraded CDK9; also recorded: can induce CDK9 degradation | duration of CDK9 degradation after removal (washout) of 955 ([4]; washout): up to 18 h
